Laboratory results as given in patent US20130302442A1, “METHODS OF USING (4S,4AS,5AR,12AS)-4-DIMETHYLAMINO-3,10,12,12A-TETRAHYDROXY-7-[(METHOXY(METHYL)AMINO)-METHYL]-1,11-DIOXO-1,4,4A,5,5A,6,11,12A-OCTAHYDRO-NAPHTHACENE-2-CARBOXYLIC ACID AMIDE” (priority 2012, published 2013).
In brackets after ≈: the same amount, converted by molar mass. Read-outs that look alike come from different tables or passages of the source. One block for each compound: values may come before it.

Tests used:
Helicobacter pylori [1] = test: In vitro MIC against multiple isolates of H. pylori; format: cell-based; details: for MIC: read-out: MIC
Helicobacter pylori [2] = details: H. pylori reference strain 3718, ATCC 43504; Clinical and Laboratory Standards Institute quality control range; cited from earlier work
Chlamydia trachomatis [3] = test: In vitro susceptibility testing of Chlamydia trachomatis in HEp-2 cells (first study); format: cell-based; details: Chlamydia trachomatis, C. trachomatis strains, read-out: MIC at which 90% of the strains were inhibited (MIC90)
Chlamydia pneumoniae = test: Susceptibility testing (MIC, MBC) of 10 isolates of C. pneumoniae in HEp-2 cells; format: cell-based
Chlamydia trachomatis [4] = test: Susceptibility testing (MIC, MBC) of 10 isolates of C. trachomatis in HEp-2 cells; format: cell-based

- MIC Range (Helicobacter pylori [1]; H. pylori clinical isolate summary): ≦0.03-64 μg/mL
- MIC (Helicobacter pylori [1]; Helicobacter pylori, ATCC43504, H. pylori reference strain, culture No. 3718, ATCC 43504): 64 µg/mL (≈ 374 µM)
- MIC (Helicobacter pylori [1]; Helicobacter pylori, ATCC700824, H. pylori reference strain, culture No. 3719, ATCC 700824): 1 µg/mL (≈ 5.84 µM)
- MIC (Helicobacter pylori [1]; Helicobacter pylori, ATCCBAA945, H. pylori reference strain, culture No. 3720, ATCC BAA-945): 1 µg/mL (≈ 5.84 µM)
- MIC (Helicobacter pylori [1]; Helicobacter pylori, H. pylori clinical isolate, culture No. 4368): 0.25 µg/mL (≈ 1.46 µM)
- MIC (Helicobacter pylori [1]; Helicobacter pylori, H. pylori clinical isolate, culture No. 4369): 0.5 µg/mL (≈ 2.92 µM)
- MIC (Helicobacter pylori [1]; Helicobacter pylori, H. pylori clinical isolate, culture No. 4370): 0.12 µg/mL (≈ 0.701 µM)
- MIC (Helicobacter pylori [1]; Helicobacter pylori, H. pylori clinical isolate, culture No. 4371): 1 µg/mL (≈ 5.84 µM)
- MIC (Helicobacter pylori [1]; Helicobacter pylori, H. pylori clinical isolate, culture No. 4372): 0.25 µg/mL (≈ 1.46 µM)
- MIC (Helicobacter pylori [1]; Helicobacter pylori, H. pylori clinical isolate, culture No. 4374): 0.12 µg/mL (≈ 0.701 µM)
- MIC (Helicobacter pylori [1]; Helicobacter pylori, H. pylori clinical isolate, culture No. 4375): 0.12 µg/mL (≈ 0.701 µM)
- MIC (Helicobacter pylori [1]; Helicobacter pylori, H. pylori clinical isolate, culture No. 4377): 1 µg/mL (≈ 5.84 µM)
- MIC (Helicobacter pylori [1]; Helicobacter pylori, H. pylori clinical isolate, culture No. 4503): ≤ 0.03 µg/mL
- MIC (Helicobacter pylori [1]; Helicobacter pylori, H. pylori clinical isolate, culture No. 4504): ≤ 0.03 µg/mL
- MIC90 (Helicobacter pylori [1]; Helicobacter pylori, H. pylori, MIC for 90% of clinical test isolates, read-out: MIC90): 1 µg/mL (≈ 5.84 µM)
- MIC50 (Helicobacter pylori [1]; Helicobacter pylori, read-out: MIC50): 0.12 µg/mL (≈ 0.701 µM)
Compound: Cc1ncc([N+](=O)[O-])n1CCO [Metronidazole, metronidazole]
- MIC, CLSI Quality Control Range (Helicobacter pylori [2]): 64 to 256 µg/mL

- MIC90 (Chlamydia trachomatis [3]): 0.015 µg/mL (≈ 0.02 µM)
- MIC Range (Chlamydia pneumoniae; 72 h): 0.03 to 0.0625 µg/mL
- MIC50 (Chlamydia pneumoniae; Chlamydia pneumoniae, 72 h): 0.0625 µg/mL (≈ 0.0834 µM)
- MIC90 (Chlamydia pneumoniae; Chlamydia pneumoniae, 72 h): 0.0625 µg/mL (≈ 0.0834 µM)
- MIC Range (Chlamydia trachomatis [4]; 72 h): 0.003 to 0.03 µg/mL
- MIC50 (Chlamydia trachomatis [4]; Chlamydia trachomatis, 72 h): 0.0075 µg/mL (≈ 0.01 µM)
- MIC90 (Chlamydia trachomatis [4]; Chlamydia trachomatis, 72 h): 0.015 µg/mL (≈ 0.02 µM)
Compound: CC[C@H]1OC(=O)[C@H](C)[C@@H](O[C@H]2C[C@@](C)(OC)[C@@H](O)[C@H](C)O2)[C@H](C)[C@@H](O[C@@H]2O[C@H](C)C[C@H](N(C)C)[C@H]2O)[C@](C)(O)C[C@@H](C)CN(C)[C@H](C)[C@@H](O)[C@]1(C)O [Azithromycin]
- MBC (Chlamydia pneumoniae; Chlamydia pneumoniae, after passage, read-out: MBC 90%): 0.25 µg/mL (≈ 0.334 µM)
- MBC 90% (Chlamydia pneumoniae; after passage): 0.25 µg/mL (≈ 0.334 µM)
- MBC Range (Chlamydia pneumoniae; after passage): 0.0625 to 0.25 µg/mL
- MBC (Chlamydia trachomatis [4]; Chlamydia trachomatis, after passage, read-out: MBC 90%): 0.015 µg/mL (≈ 0.02 µM)
- MBC Range (Chlamydia trachomatis [4]; after passage): 0.007 to 0.03 µg/mL
